Experimental data from EP0626170A2, “Stabilisation of pharmacologically active compounds in sustained release compositions” (SANDOZ LTD., priority 1993, dated 1994).

Assay: Stability of compound A microspheres: degradation products by HPLC after manufacture, γ-irradiation and storage
Assay type: physicochemical
Conditions: for Increase of degradation product (%) after storage at 5°C / Increase of degradation product (%) after storage at 25°C: further increase (+) on storage; for degradation: during manufacture, sterilization and 1 month storage (5°C); for Increase of degradation product (%) after man. + γ-irrad. / Increase of degradation product (%) after manufacture: microspheres, pilot batches
Protocol: Microparticles were produced by a modified triple-emulsion technique. Compound A pamoate salt was dispersed in a small amount of water (14 mg pamoate salt in 0.1 ml) and the dispersion was intensively homogenized using an Ultra-Turrax T25 (Janke & Kunkel IKA-Werk) into a solution (10-25%) of DL-PLG-GLU in methylene chloride (emulsion process). Alternatively, compound A pamoate salt was directly dispersed into the solution of polymer in methylene chloride (suspension process). The resulting primary water/oil (W/O) emulsion or suspension (S/O) was then intensively mixed with the external phase (in a ratio of 1:40), a gelatin containing aqueous solution. After stirring for one hour in order to evaporate the methylene chloride, the generated microspheres were collected by filtration, washed with water and dried under high vacuum at room temperature for 1 - 3 days. Storage was effected at 5°C. Sterilization was effected by γ-irridation (25 kGy required) by using nitrogen as a protecting gas.
Compound A content and purity of the microparticles was determined by HPLC (RP-18 columns, acetonitril - tetramethyl ammonium hydroxide/water gradient) after extraction of the peptide from the microspheres using tetrahydrofuran acetate buffer, pH 4.2 (1:1).
The generation of degradation products of compound A during the manufacture process, γ-irradiation and subsequent strorage at various temperatures is represented in Table 2. Potential stability problems arose with the acetate and the phosphate salts of compound A: during manufacture, sterilization and 1 month storage (5°C) 5 - 10% degradation occurred. These problems could be circumvented by the use of the pamoate. After manufacture, sterilization and three months of storage even at 25°C there was an increase of degradation products of less than 1.5%, more particularly of less than 0.5% after manufacture, less than 1.0% from the beginning of manufacture to just after irradiation and , inclusive of storage for 3 months at 25°C less than 1.5%.

| Increase of degradation product (%) after storage at 5°C (1 month) | Increase of degradation product (%) after storage at 25°C (1 month) | degradation | Increase of degradation product (%) after man. + γ-irrad. | Increase of degradation product (%) after manufacture | Increase of degradation product (%) after storage at 5°C (3 months) | Increase of degradation product (%) after storage at 25°C (3 months) | increase of degradation products (after manufacture) | increase of degradation products (after manufacture, sterilization and three months of storage at 25°C) | increase of degradation products (from the beginning of manufacture to just after irradiation) | SMILES |
| --- | --- | --- | --- | --- | --- | --- | --- | --- | --- | --- |
| + 0.6% | + 1.3% | 5 - 10% | 4.2 - 8.3% | 0.4 - 4.2% |  |  |  |  |  | CC(=O)N[C@H](Cc1ccc2ccccc2c1)C(=O)N[C@H](Cc1ccc(Cl)cc1)C(=O)N[C@H](Cc1c[nH]c2ccccc12)C(=O)N[C@@H](CO)C(=O)N[C@@H](Cc1ccc(O)cc1)C(=O)N[C@H](CCCCNCC(O)CO)C(=O)N[C@@H](CC(C)C)C(=O)N[C@@H](CCCCNCC(O)CO)C(=O)N1CCC[C@H]1C(=O)N[C@H](C)C(N)=O (single isomer, unassigned) [Compound A acetate] |
| + 0.7% | + 1.6% | 5 - 10% | 7.0 - 9.0% | 1.2 - 3.5% |  |  |  |  |  | CC(=O)N[C@H](Cc1ccc2ccccc2c1)C(=O)N[C@H](Cc1ccc(Cl)cc1)C(=O)N[C@H](Cc1c[nH]c2ccccc12)C(=O)N[C@@H](CO)C(=O)N[C@@H](Cc1ccc(O)cc1)C(=O)N[C@H](CCCCNCC(O)CO)C(=O)N[C@@H](CC(C)C)C(=O)N[C@@H](CCCCNCC(O)CO)C(=O)N1CCC[C@H]1C(=O)N[C@H](C)C(N)=O (single isomer, unassigned) [Compound A phosphate] |
|  |  |  | 0.4 - 0.8% | 0.1 - 0.4% | + 0.4% | + 0.6% | less than 0.5% | less than 1.5% | less than 1.0% | CC(=O)N[C@H](Cc1ccc2ccccc2c1)C(=O)N[C@H](Cc1ccc(Cl)cc1)C(=O)N[C@H](Cc1c[nH]c2ccccc12)C(=O)N[C@@H](CO)C(=O)N[C@@H](Cc1ccc(O)cc1)C(=O)N[C@H](CCCCNCC(O)CO)C(=O)N[C@@H](CC(C)C)C(=O)N[C@@H](CCCCNCC(O)CO)C(=O)N1CCC[C@H]1C(=O)N[C@H](C)C(N)=O (single isomer, unassigned) [Compound A pamoate] |
